Patent publication US6071709A, “Nerve growth factor/receptor complex” (The United States of America as represented by the …, priority 1992, dated 2000)

Legend:
p140^prototrk [1] = assay: Affinity crosslinking of 125I-NGF to gp140trk with HSAB and immunoprecipitation; assay type: binding, rat; conditions: 0.5 nM 125I-NGF, 2 hr at 4° C., PC12 and rtrk-3T3 cells
Source text: FIG. 5 depicts the affinity crosslinking of NGF to gp140trk on PC12 cells and rtrk 3T3 cells. trk receptors were labeled by cross-linking of ^125 I-NGF to cultured cells using HSAB. The cell lines analyzed were PC12 cells (lanes 1-4), rtrk 3T3 cells (lanes 5-9), NIH-3T3 cells (lanes 10-11) and A875 human […] cells (lanes 13-15). Lysates from cells were immunoprecipitated with anti-NGF (lanes 1, 5, 9-14), gp140trk antibody 7-4 which is another trk antibody generated in bacteria against the gp70trk oncogene (7-4), (Martin-Zanca et al., (1989)) (lanes 2 and 6), or gp140trk antibody 43-4 in the absence (lanes […] and 15) or presence (lanes 4 and 8) of 10 μg/ml competing trk peptide. Crosslinking was performed in the presence of excess unlabeled NGF ([…]) in lanes 9, 11, and 14. The antibody 7-4 immunoprecipitates 3-5 fold less gp140 trk than does antibody 43-4. […]
^125 I-NGF was prepared by lactoperoxidase treatment to specific activities of 2500-3500 cpm/fmole. […] After washing in 50 mM lysine in phosphate buffered saline, cells were lysed in buffer containing 1% NP40 and the lysates immunoprecipitated and analyzed on 7.5% SDS-PAGE as described (Kaplan et al., (1990)).
To determine if NGF was capable of binding to p140^prototrk, several cell lines were analyzed for the ability of trk-specific antisera to precipitate receptor-ligand complexes in affinity crosslinking experiments (FIG. 5). […]

p140^prototrk [2] = biological target: p140^prototrk (Rattus norvegicus, UniProt P35739); assay: NGF-dependent trk tyrosine phosphorylation in NR18 cells (PC12 derivative); assay type: cell-based; design: the phosphorylation state of the trk receptor on the NR18 cell line; endogenous in cells; host or cells: NR18 cells; conditions: 100 ng/ml NGF for 5 min
Source text: FIGS. 4A-B show NGF-dependent tyrosine phosphorylation of gp140trk in the human neuroblastoma cell lines LA-N-5, SY5Y, and dorsal root ganglia from mouse embryos. FIG. 4A, gp140trk was immunoprecipitated from untreated (-) or NGF treated (+) LA-N-5 cells (K. H. Sonnenfeld and D. N. Ishii, J. Neurosci. Res. 8:375-391 (1982)), SY5Y cells (K. H. Sonnenfeld and D. N. Ishii, (1982)), NR18 cells (M. A. Bothwell et al., Cell 21:857-866 (1980)), or PC12 cells. Immunoprecipitates were probed with P-tyr antibodies. The differences in trk protein mobilities are due to differences in glycosylation. FIG. 4B, Tyrosine phosphorylation of gp140trk in DRGs from 13.5 day or 14.5 day embryonic mice. DRGs were maintained in 100 ng/ml NGF for ≥10 min prior to lysis and immunoprecipitation with trk antibodies. trk immunoprecipitates were probed with P-tyr antibody. Tyrosine phosphorylated gp140trk from NGF-treated (+) PC12 cells or untreated (-) PC12 cells is shown for comparison. Samples were normalized for cell protein. Molecular weight markers in kDa are indicated.
Cell lines were treated with 100 ng/ml NGF for 5 min and gp140trk immunoprecipitated as in FIG. 1. DRGs were prepared by dissection for 13.5 or 14.5 day mouse embryos. […] Lysates were immunoprecipitated with trk antibody and the trk proteins were analyzed by antiphosphotyrosine immunoblots. […]

p140^prototrk (Rattus norvegicus, UniProt P35739), sequence (P35739 33-799): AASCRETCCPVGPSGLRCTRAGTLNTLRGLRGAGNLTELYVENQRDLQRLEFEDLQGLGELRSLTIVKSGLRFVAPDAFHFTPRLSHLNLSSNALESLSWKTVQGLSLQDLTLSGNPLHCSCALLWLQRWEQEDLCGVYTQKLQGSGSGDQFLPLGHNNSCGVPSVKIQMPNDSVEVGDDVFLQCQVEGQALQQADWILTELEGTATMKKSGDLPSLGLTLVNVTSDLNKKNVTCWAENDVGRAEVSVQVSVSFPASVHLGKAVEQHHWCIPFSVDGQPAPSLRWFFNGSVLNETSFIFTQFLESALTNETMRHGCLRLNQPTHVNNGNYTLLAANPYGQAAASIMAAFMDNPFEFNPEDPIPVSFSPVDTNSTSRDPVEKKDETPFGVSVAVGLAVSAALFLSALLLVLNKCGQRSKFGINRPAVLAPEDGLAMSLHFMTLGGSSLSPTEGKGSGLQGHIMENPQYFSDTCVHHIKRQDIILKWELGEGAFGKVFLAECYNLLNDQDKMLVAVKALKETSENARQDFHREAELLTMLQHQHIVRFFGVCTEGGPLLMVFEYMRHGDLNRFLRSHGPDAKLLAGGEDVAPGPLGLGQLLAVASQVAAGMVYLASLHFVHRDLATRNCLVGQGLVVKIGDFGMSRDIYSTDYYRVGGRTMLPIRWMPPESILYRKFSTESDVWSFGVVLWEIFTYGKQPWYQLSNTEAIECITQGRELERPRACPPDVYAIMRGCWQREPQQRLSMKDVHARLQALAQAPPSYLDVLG
p140^prototrk, sequence (P35739 148-395 limits assumed): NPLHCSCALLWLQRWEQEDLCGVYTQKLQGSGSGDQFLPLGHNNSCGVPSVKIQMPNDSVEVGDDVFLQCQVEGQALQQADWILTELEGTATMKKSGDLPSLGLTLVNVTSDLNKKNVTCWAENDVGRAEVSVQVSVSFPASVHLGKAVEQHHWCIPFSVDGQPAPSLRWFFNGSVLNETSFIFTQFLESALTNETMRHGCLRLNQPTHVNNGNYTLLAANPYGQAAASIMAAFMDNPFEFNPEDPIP

NGF: neurotrophic polypeptide factor, nerve growth factor; ligand of trk proto-oncogene receptor
binding to p140^prototrk (160 kDa crosslinked species) (p140^prototrk [1]): binds | p140^prototrk phosphorylation in response to NGF (p140^prototrk [2]): no phosphorylation
